Laboratory results as given in paper PMC8355244, “A fragment-based approach identifies an allosteric pocket that impacts malate dehydrogenase activity” (Communications Biology, 2021).
Where two headings read alike, the source gives them in different places.

Target: T1, WT PfMDH (Plasmodium falciparum, UniProt Q6VVP7)
T1 construct: The full-length WT PfMDH gene was cloned into pETM-13; made in house; host or cells: E. coli Rosetta 2 (DE3) pLysS
Assay: Activity screening of 4DT / 4-phenylthiazol-2-amine derivatives (oxidation of malate, absorbance at 340 nm)
Type: biochemical
Details: for inhibition at 500 µM: Dunnett's multiple comparisons test, read-out: Mean Diff. (positive control vs. compound); for Slope repl1 / Slope repl2: linear regression slope of absorbance 340 nm vs time; for Slope normalized repl1: slope relative to control = 1, replicate 1; for Slope normalized repl2: slope relative to control = 1, replicate 2
Description: The oxidation of malate to oxaloacetate was assayed spectrophotometrically in flat-bottomed Corning 96-well microplates in a total volume of 250.0 µl in 50 mM glycine buffer pH 10.2[24] with an additional 400 mM NaCl for protein stability. The increase of absorbance at 340 nm was recorded in kinetic mode using a Tecan Spark multimode microplate reader at 298 K. A mastermix of 50 mM NAD+ and 44 μM PfMDH was used for both the screening and kinetics experiments. The final concentration of protein and cofactor were […], respectively. Positive control groups were set (absence of compound) in the same plate as the treated group. The absorbance from the background noise was subtracted from the data and then a linear regression model was employed in order to get the line slope from the first 5 min of the reaction. The percentage of enzymatic activity has been calculated as described by Eq. (1)1 enzymeactivity(%)=slopetreated/slopepositivecontrol*100
1.3 µL of derivatives of 4-phenylthiazol-2-amine in 100% DMSO were mixed with 237.7 µL of a mastermix of WT PfMDH previously incubated with NAD+. The final compound concentration used in this screening was 500 µM in the presence of 0.5% (v/v) DMSO. The microplate was sealed with silver foil for 1-h incubation at 25–35 °C. Finally, reactions in both the samples and control wells were started upon the addition of 13.0 µL of 5 mM malate). At the end of the experiments, the reaction of the plate was spectrophotometrically assayed at 600 nm in order to identify turbidity due to the low solubility of the compound. All measurements were performed in duplicate.

[1] = 500 µM compound, Dunnett test details, positive control mean 100, n 2, read-out: Mean 2 (mean % enzymatic activity of treated group)
[2] = 500 µM compound, control 100%, replicate 1, read-out: % enzymatic activity repl1
[3] = 500 µM compound, control 100%, replicate 2, read-out: % enzymatic activity repl2

T1 sequence (Q6VVP7 entry or part of it): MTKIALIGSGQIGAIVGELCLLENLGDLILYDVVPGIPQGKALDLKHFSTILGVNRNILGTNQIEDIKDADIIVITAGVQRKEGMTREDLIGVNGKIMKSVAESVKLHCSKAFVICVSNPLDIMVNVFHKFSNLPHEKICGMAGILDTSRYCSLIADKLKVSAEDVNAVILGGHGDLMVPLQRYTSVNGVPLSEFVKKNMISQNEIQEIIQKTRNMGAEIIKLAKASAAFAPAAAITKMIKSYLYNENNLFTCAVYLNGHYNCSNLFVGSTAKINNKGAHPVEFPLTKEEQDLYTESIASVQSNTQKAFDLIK

| SMILES | remaining activity at 500 µM [1] [%] | inhibition at 500 µM (500 µM compound) [%] | remaining activity at 500 µM [2] [%] | remaining activity at 500 µM [3] [%] | Slope repl1 (500 µM compound, replicate 1) | Slope repl2 (500 µM compound, replicate 2) | Slope normalized repl1 (500 µM compound) | Slope normalized repl2 (500 µM compound) | remaining activity at 500 µM (read-out: enzyme activity) [%] |
| --- | --- | --- | --- | --- | --- | --- | --- | --- | --- |
| Nc1cc(-c2ccccc2)[nH]n1 [5b] | 53 | 47.5 | 63 | 42 | 0.02092 | 0.01483 | 0.628 | 0.4232 | 53 |
| Nc1nc(-c2ccc(F)c(F)c2)cs1 [1a] | 62 | 38.5 | 64 | 59 | 0.02136 | 0.02071 | 0.6412 | 0.591 | 62 |
| Nc1nc(-c2ccc(F)cc2)cs1 [compound 9a] | 51 | 49 | 57 | 45 | 0.01901 | 0.01582 | 0.5707 | 0.4515 | 51 |
